Assay results reported in US20240383856A1 (Zedira GmbH, priority 2021, published 2024).

Key:
[1] = target: T1, recombinant human transglutaminase 2 (Homo sapiens, UniProt P21980); assay: Transglutaminase assay (DCC-assay): incorporation of dansylcadaverine into dimethylcasein; format: biochemical; conditions: recombinant human TG2 10 nM; dansylcadaverine incorporation into dimethylcasein; read-out: IC50 TG2
T1 construct: purchased Zedira T022
T1 sequence (P21980 1-687): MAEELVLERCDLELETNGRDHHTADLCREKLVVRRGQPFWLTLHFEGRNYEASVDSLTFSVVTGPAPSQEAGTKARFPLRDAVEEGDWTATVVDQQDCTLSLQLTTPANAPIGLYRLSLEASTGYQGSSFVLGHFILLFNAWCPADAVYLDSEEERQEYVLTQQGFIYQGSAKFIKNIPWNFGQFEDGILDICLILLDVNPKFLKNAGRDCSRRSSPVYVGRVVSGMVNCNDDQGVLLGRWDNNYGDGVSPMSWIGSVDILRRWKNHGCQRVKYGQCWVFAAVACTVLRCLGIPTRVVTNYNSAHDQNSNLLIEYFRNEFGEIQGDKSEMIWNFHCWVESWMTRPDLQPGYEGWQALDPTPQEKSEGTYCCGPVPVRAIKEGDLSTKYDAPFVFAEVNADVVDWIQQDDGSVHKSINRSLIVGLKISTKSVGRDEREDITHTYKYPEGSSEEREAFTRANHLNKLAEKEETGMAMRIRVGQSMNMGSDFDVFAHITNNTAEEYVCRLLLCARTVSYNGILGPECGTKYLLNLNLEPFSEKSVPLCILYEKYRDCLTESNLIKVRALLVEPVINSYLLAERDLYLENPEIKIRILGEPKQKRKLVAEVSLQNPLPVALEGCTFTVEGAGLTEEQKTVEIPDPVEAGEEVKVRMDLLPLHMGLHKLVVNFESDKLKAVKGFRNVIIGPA
Method in brief: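 Recombinant human TG2 (10 nM final) incorporates dansylcadaverine into N,N-dimethylcasein. Reaction mix: 50 mM Tris-HCl, 10 mM CaCl2, 10 mM glutathione, 2.5% glycerol, 16.7 µM dansylcadaverine, 4 µM dimethylcasein, 200 mM NaCl, pH 8.0. Fluorescence (ex 330/em 500 nm) was followed 30 min at 37 °C; the 20–30 min slope, expressed as % of 2% DMSO control, gave IC50.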

[2] = logD by shake flask method (octanol / PBS pH 7.4, HPLC); format: physicochemical; conditions: octanol / PBS pH 7.4, shake flask
Method in brief: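 Shake-flask partition of compound between octanol and phosphate-buffered saline at pH 7.4, with each phase quantified by HPLC to give LogD.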

[3] = Caco-2 permeability assay (CacoReady kit); format: in vitro ADME; conditions: human, Caco-2, Caco-2 barrier, CacoReady kit; above 1×10^−6 cm/s classified as permeable
Method in brief: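 Papp values come from Caco-2 barrier studies intended to predict oral bioavailability; the manufacturer's procedure for the ready-made kit was followed.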

CNC(=O)C(=O)CC[C@H](NC(=O)c1sc(C(F)(F)F)nc1Br)C(=O)Nc1cccn(CC(=O)NC2C3CC4CC(C3)CC2C4)c1=O (stereo partly drawn) [II-16, (S)-2-(4-bromo-2-(trifluoromethyl)thiazole-5-carboxamido)-N1-(1-(2-(2-adamantylamino)-2-oxoethyl)-2-oxo-1,2-dihydropyridin-3-yl)-N6-methyl-5-oxohexanediamide]
IC50 [1]: < 40 nM | logD [2]: 1 to 3 | Papp [3]: 1 to 10 ×10⁻⁶ cm/s

CNC(=O)C(=O)CC[C@H](NC(=O)c1cnnn1C)C(=O)Nc1cccn(CC(=O)N[C@H]2C[C@H]3CC[C@]2(C)C3(C)C)c1=O [II-162, (S)-N1-methyl-5-(1-methyl-1H-1,2,3-triazole-5-carboxamido)-2-oxo-N6-(2-oxo-1-(2-oxo-2-((1R,2S,4R)-1,7,7-trimethylbicyclo[2.2.1]heptan-2-ylamino)ethyl)-1,2-dihydropyridin-3-yl)hexanediamide]
IC50 [1]: 40 to 400 nM | logD [2]: < 1 | Papp [3]: < 1 ×10⁻⁶ cm/s

CNC(=O)C(=O)CC[C@H](NC(=O)c1nc2ccccc2[nH]1)C(=O)Nc1cccn(CC(=O)NC2C3CC4CC(C3)CC2C4)c1=O (stereo partly drawn) [II-12, (S)-2-(1H-benzo[d]imidazole-2-carboxamido)-N1-(1-(2-(2-adamantylamino)-2-oxoethyl)-2-oxo-1,2-dihydropyridin-3-yl)-N6-methyl-5-oxohexanediamide]
IC50 [1]: 40 to 400 nM | logD [2]: 3 to 5 | Papp [3]: < 1 ×10⁻⁶ cm/s

CNC(=O)C(=O)CC[C@H](NC(=O)c1cc(Br)c(Br)s1)C(=O)Nc1cccn(CC(=O)NC2C3CC4CC(C3)CC2C4)c1=O (stereo partly drawn) [II-45, (S)-2-(4,5-dibromothiophene-2-carboxamido)-N1-(1-(2-(2-adamantylamino)-2-oxoethyl)-2-oxo-1,2-dihydropyridin-3-yl)-N6-methyl-5-oxohexanediamide]
IC50 [1]: < 40 nM | logD [2]: 3 to 5 | Papp [3]: 1 to 10 ×10⁻⁶ cm/s

CNC(=O)C(=O)CC[C@H](NC(=O)c1cnnn1C)C(=O)Nc1cccn(CC(=O)N[C@@H]2C[C@H]3CC[C@@H]2C3)c1=O [II-130, (2S)-N1-(1-(2-((1R,2R,4S)-bicyclo[2.2.1]heptan-2-ylamino)-2-oxoethyl)-2-oxo-1,2-dihydropyridin-3-yl)-N6-methyl-2-(1-methyl-1H-1,2,3-triazole-5-carboxamido)-5-oxohexanediamide]
IC50 [1]: 40 to 400 nM | logD [2]: < 1 | Papp [3]: < 1 ×10⁻⁶ cm/s

CNC(=O)C(=O)CC[C@H](NC(=O)c1ccc(Cl)s1)C(=O)Nc1cccn(CC(=O)NC2C3CC4CC(C3)CC2C4)c1=O (stereo partly drawn) [II-24, (S)-2-(5-chlorothiophene-2-carboxamido)-N1-(1-(2-(2-adamantylamino)-2-oxoethyl)-2-oxo-1,2-dihydropyridin-3-yl)-N6-methyl-5-oxohexanediamide]
IC50 [1]: 40 to 400 nM | logD [2]: 1 to 3 | Papp [3]: 1 to 10 ×10⁻⁶ cm/s

CNC(=O)C(=O)CC[C@H](NC(=O)c1cc(Br)co1)C(=O)Nc1cccn(CC(=O)NC2C3CC4CC(C3)CC2C4)c1=O (stereo partly drawn) [II-47, (S)-2-(4-bromofuran-2-carboxamido)-N1-(1-(2-(2-adamantylamino)-2-oxoethyl)-2-oxo-1,2-dihydropyridin-3-yl)-N6-methyl-5-oxohexanediamide]
IC50 [1]: < 40 nM | logD [2]: 1 to 3 | Papp [3]: 1 to 10 ×10⁻⁶ cm/s

CNC(=O)C(=O)CC[C@H](NC(=O)c1oc2ccccc2c1C)C(=O)Nc1cccn(CC(=O)N(C)C2C3CC4CC(C3)CC2C4)c1=O (stereo partly drawn) [II-67, (S)-N1-(1-(2-(2-adamantyl(methyl)amino)-2-oxoethyl)-2-oxo-1,2-dihydropyridin-3-yl)-N6-methyl-2-(3-methylbenzofuran-2-carboxamido)-5-oxohexanediamide]
IC50 [1]: 400 to 2500 nM | logD [2]: 3 to 5 | Papp [3]: 1 to 10 ×10⁻⁶ cm/s

CNC(=O)C(=O)CC[C@H](NC(=O)c1sc(Br)nc1C)C(=O)Nc1cccn(CC(=O)NC2C3CC4CC(C3)CC2C4)c1=O (stereo partly drawn) [II-14, (S)--(2-bromo-4-methylthiazole-5-carboxamido)-N1-(1-(2-(2-adamantylamino)-2-oxoethyl)-2-oxo-1,2-dihydropyridin-3-yl)-N6-methyl-5-oxohexanediamide]
IC50 [1]: < 40 nM | logD [2]: 1 to 3 | Papp [3]: 1 to 10 ×10⁻⁶ cm/s

Cc1c(C(=O)N[C@@H](CCC(=O)C(=O)NC2CC2)C(=O)Nc2cccn(CC(=O)NC3C4CC5CC(C4)CC3C5)c2=O)oc2ccccc12 (stereo partly drawn) [II-115, (S)-N1-cyclopropyl-N6-(1-(2-(2-adamantylamino)-2-oxoethyl)-2-oxo-1,2-dihydropyridin-3-yl)-5-(3-methylbenzofuran-2-carboxamido)-2-oxohexanediamide]
IC50 [1]: 40 to 400 nM | logD [2]: 3 to 5 | Papp [3]: 1 to 10 ×10⁻⁶ cm/s

CNC(=O)C(=O)CC[C@H](NC(=O)c1c[nH]cc1C(C)(C)C)C(=O)Nc1cccn(CCC23CC4CC(CC(C4)C2)C3)c1=O [II-164]
IC50 [1]: 400 to 2500 nM | logD [2]: 3 to 5 | Papp [3]: 1 to 10 ×10⁻⁶ cm/s

CNC(=O)C(=O)CC[C@H](NC(=O)c1cc(Br)c(Br)o1)C(=O)Nc1cccn(CC(=O)NC2C3CC4CC(C3)CC2C4)c1=O (stereo partly drawn) [II-48, (S)-2-(4,5-dibromofuran-2-carboxamido)-N1-(1-(2-(2-adamantylamino)-2-oxoethyl)-2-oxo-1,2-dihydropyridin-3-yl)-N6-methyl-5-oxohexanediamide]
IC50 [1]: < 40 nM | logD [2]: 3 to 5 | Papp [3]: 1 to 10 ×10⁻⁶ cm/s

CNC(=O)C(=O)CC[C@H](NC(=O)C1Cc2ccccc2C1)C(=O)Nc1cccn(CC(=O)NC2C3CC4CC(C3)CC2C4)c1=O (stereo partly drawn) [II-13, (S)-2-(2,3-dihydro-1H-indene-2-carboxamido)-N1-(1-(2-(2-adamantylamino)-2-oxoethyl)-2-oxo-1,2-dihydropyridin-3-yl)-N6-methyl-5-oxohexanediamide]
IC50 [1]: < 40 nM | logD [2]: 1 to 3 | Papp [3]: 1 to 10 ×10⁻⁶ cm/s

CNC(=O)C(=O)CC[C@H](NC(=O)c1oc2ccccc2c1C)C(=O)Nc1cccn(CC(=O)N[C@@H]2C[C@H]3CC[C@@H]2C3)c1=O [II-94, (S)-N1-(1-(2-((1R,2R,4S)-bicyclo[2.2.1]heptan-2-ylamino)-2-oxoethyl)-2-oxo-1,2-dihydropyridin-3-yl)-N6-methyl-2-(3-methylbenzofuran-2-carboxamido)-5-oxohexanediamide]
IC50 [1]: < 40 nM | logD [2]: 1 to 3 | Papp [3]: 1 to 10 ×10⁻⁶ cm/s

CNC(=O)C(=O)CC[C@H](NC(=O)c1oc2ccccc2c1C)C(=O)Nc1cccn(CC(=O)N[C@H]2C[C@H]3CC[C@@H]2C3)c1=O [II-90, (S)-N1-(1-(2-((1R,2S,4S)-bicyclo[2.2.1]heptan-2-ylamino)-2-oxoethyl)-2-oxo-1,2-dihydropyridin-3-yl)-N6-methyl-2-(3-methylbenzofuran-2-carboxamido)-5-oxohexanediamide]
IC50 [1]: 40 to 400 nM | logD [2]: 1 to 3 | Papp [3]: < 1 ×10⁻⁶ cm/s

CNC(=O)C(=O)CC[C@H](NC(=O)c1sc(C(F)(F)F)nc1C)C(=O)Nc1cccn(CC(=O)N[C@H]2C[C@H]3CC[C@]2(C)C3(C)C)c1=O [II-159, (S)-N1-methyl-5-(4-methyl-2-(trifluoromethyl)thiazole-5-carboxamido)-2-oxo-N6-(2-oxo-1-(2-oxo-2-((1R,2S,4R)-1,7,7-trimethylbicyclo[2.2.1]heptan-2-ylamino)ethyl)-1,2-dihydropyridin-3-yl)hexanediamide]
IC50 [1]: 40 to 400 nM | logD [2]: 1 to 3 | Papp [3]: 1 to 10 ×10⁻⁶ cm/s

CC(C)NC(=O)C(=O)CC[C@H](NC(=O)c1cc2ccccc2o1)C(=O)Nc1cccn(CC(=O)NC2C3CC4CC(C3)CC2C4)c1=O (stereo partly drawn) [II-120, (S)-2-(benzofuran-2-carboxamido)-N6-isopropyl-N1-(1-(2-(2-adamantylamino)-2-oxoethyl)-2-oxo-1,2-dihydropyridin-3-yl)-5-oxohexanediamide]
IC50 [1]: 40 to 400 nM | logD [2]: 3 to 5 | Papp [3]: 1 to 10 ×10⁻⁶ cm/s

CNC(=O)C(=O)CC[C@H](NC(=O)c1cnc(C(C)C)o1)C(=O)Nc1cccn(CC(=O)NC23CCC(C2)C3)c1=O [II-170, (S)-N1-(1-(2-(bicyclo[2.1.1]hexan-1-ylamino)-2-oxoethyl)-2-oxo-1,2-dihydropyridin-3-yl)-2-(2-isopropyloxazole-5-carboxamido)-N6-methyl-5-oxohexanediamide]
IC50 [1]: 40 to 400 nM | logD [2]: < 1 | Papp [3]: 1 to 10 ×10⁻⁶ cm/s

CNC(=O)C(=O)CC[C@H](NC(=O)c1snnc1C(C)C)C(=O)Nc1cccn(CC(=O)NC2C3CC4CC(C3)CC2C4)c1=O (stereo partly drawn) [II-203, (S)-2-(4-isopropyl-1,2,3-thiadiazole-5-carboxamido)-N1-(1-(2-(2-adamantylamino)-2-oxoethyl)-2-oxo-1,2-dihydropyridin-3-yl)-N6-methyl-5-oxohexanediamide]
IC50 [1]: 40 to 400 nM | logD [2]: 1 to 3 | Papp [3]: < 1 ×10⁻⁶ cm/s
